The values that follow come from ChEMBL document CHEMBL3507680, “University of Dundee, Gates Library screen for HepG2 cell viability”.

The structures appear in SMILES notation.

The data set in a line: Human HepG2 cell viability assay in 384 well format. Further details: dose 125 nL, time 70.5 hour; cytotoxicity at 70.5 h: concentration not given beside the values. The format is toxicity, cell-based. The following applies: HepG2 cells, read-out: Inhibition.
On to `CCn1nnnc1-c1cccc(NC(=O)CCn2cc(C)cn2)c1`, for which the cytotoxicity at 70.5 h was -7.36%. Under `CCn1nc2c(cc1=O)CN(CC1CCCCO1)CC2` (centres undefined) stands 11.3%. Under `CN(CCN(C)S(=O)(=O)CC1CCOCC1)c1ccccc1` stands -3.42%.

Consider `O=c1[nH]c(=O)n(CC(O)c2ccc(F)cc2F)cc1Cl` (centres undefined), for which the cytotoxicity at 70.5 h came to 0.374%. Then `CC1CS(=O)(=O)CCN1Cc1ccccc1N(C)C` (centres undefined), with -0.403%; and `COc1ccc(Cn2nc(C(N)=O)ccc2=O)c(Cl)c1`, with -3.77%. Then `CCOc1cccc(NCc2cnc(N3CCN(C)CC3)nc2)n1`, with 3.56%; and `O=C(NC1CCCCC1)c1c(F)cccc1F`, with 4.08%.

Turning to `CCCn1nc2c(cc1=O)CN(CC1CCCCO1)CC2` (centres undefined), the cytotoxicity at 70.5 h was -1.08%.

Take `CC(=O)N1CCN(c2ccccc2CNc2ccc3[nH]ncc3c2)CC1`: the cytotoxicity at 70.5 h came out at 0.892%. In the case of `CCn1nnnc1-c1cccc(NC(=O)CCOC(C)C)c1`, the cytotoxicity at 70.5 h is -7.16%.

`CC(=O)N1CCN(c2ccccc2CNc2cncc(C)c2)CC1`: the cytotoxicity at 70.5 h was found to be 4.13%.

As to `CCn1cc(S(=O)(=O)Nc2ccc3[nH]c(C4CCC4)nc3c2)cn1`, the cytotoxicity at 70.5 h amounted to 24.1%. Consider `CC(C)NC(=O)N1CCCCCC1C1CCN(c2ncccn2)CC1` (centres undefined), for which the cytotoxicity at 70.5 h worked out at 19.7%.

Take `CCC(=O)Nc1ccc(F)cc1OC`: the cytotoxicity at 70.5 h is 14.6%. Then `Cc1cc(C(=O)N(C)C2CCS(=O)(=O)C2)c2ccc(F)cc2n1` (centres undefined), with 10.8%; and `CN(Cc1cc(Cl)c2c(c1)OCO2)Cc1cscn1`, with 3.03%. In the case of `CCCN1CCC(N(C)C(=O)c2cc(C)nc3cc(F)ccc23)CC1`, the cytotoxicity at 70.5 h was -11.9%.

Regarding `Cc1cc(N(C)C)nc(N2CCn3c(nnc3C3CC3)C2)n1`, the cytotoxicity at 70.5 h was 5.46%. Take `CS(=O)(=O)CCCN1CCSCC1c1ccc(Cl)cc1` (centres undefined): the cytotoxicity at 70.5 h was -9.37%. Under `Cc1noc(C)c1NC(=O)N1CCC(NC(=O)OC(C)(C)C)CC1` stands -5.75%; under `Cc1ccc(C(=O)NS(=O)(=O)c2ccc3c(c2)OCCCO3)o1`, 11.7%; under `CCOc1ncccc1C(=O)NC1CC(=O)N(CC(F)(F)F)C1` (centres undefined), -6.92%.

In the case of `Cc1nc(CN2CCCC2C(=O)OCc2ccccc2)oc1C` (centres undefined), the cytotoxicity at 70.5 h was -10.3%. For the compound `CC(C)Oc1ccccc1C(=O)NC1CC(=O)N(CC(F)(F)F)C1` (centres undefined), the cytotoxicity at 70.5 h is -22.6%. In the case of `COC(=O)CCN(CC1CCCO1)C(=O)Cc1ccc(OC)c(OC)c1` (centres undefined), the cytotoxicity at 70.5 h was -5.89%. Then `O=C(NCC1(O)CCSCC1)c1nccc2ccccc12`, with 13.5%; and `Cc1cc(NC(=O)CNc2cccc(OC(F)F)c2C)n(C)n1`, with -6.65%; and `CNC(=O)c1c(C)cccc1NCC(=O)Nc1cc(C)nn1C`, with 8.71%. For `C/C=C(/C)C(=O)NS(=O)(=O)c1ccc(Cl)cn1`, the cytotoxicity at 70.5 h was -0.512%. Under `Cc1oc(CNC(=O)Cc2ccccc2Cl)cc1C(=O)O` stands -7.56%; under `C/C=C(/C)C(=O)NS(=O)(=O)c1ccc(C(F)(F)F)cn1`, -18.7%; under `CSc1cc(CNC(=O)CCOc2ccccc2C)ccn1`, -7.07%. Regarding `CSC1(CNC(=O)c2ccn(-c3ccccc3F)n2)CCOCC1`, the cytotoxicity at 70.5 h was -8.53%.

Consider `Cc1cc(C(C)(O)CNC(=O)CCn2ccnc2C(C)C)c(C)o1` (centres undefined), for which the cytotoxicity at 70.5 h turned out to be 9.42%.

`OC1(CN2CCCC(Cn3cncn3)C2)CCCCC1` (centres undefined): the cytotoxicity at 70.5 h amounted to 6.45%.

For the compound `CCN1CC(COC(=O)c2ccccc2Cl)CC1=O` (centres undefined), the cytotoxicity at 70.5 h stood at 7.47%. Under `O=C(c1ccc(NCc2cccc(F)c2)cc1)N1CCCC1` stands 1.69%; under `c1ncn(CC2CCCN(CC3CCCCC3)C2)n1` (centres undefined), -7.32%. For the compound `CC1(C)CN(C(CNS(C)(=O)=O)c2ccc(Cl)cc2)CCO1` (centres undefined), the cytotoxicity at 70.5 h is -5.58%. Turning to `COCC(=O)NC(C)c1sc(-c2ccccc2F)nc1C` (centres undefined), the cytotoxicity at 70.5 h was -2.79%. Under `CC(C)n1cnnc1CNC(=O)c1cnn(-c2ccccc2)c1` stands 10%. Under `CCOc1ccc(Cl)c(C(=O)N2CCCC(c3ccn[nH]3)C2)n1` (centres undefined) stands -2.59%.

For the compound `O=C(c1cccc(NCc2cccc(F)c2)c1)N1CCC(O)CC1`, the cytotoxicity at 70.5 h came to 10.8%. Then `O=C(c1ccc(NCc2cccc(F)c2)cc1)N1CCC(CO)CC1`, with 2.87%; and `Cc1nc(C)c(C(=O)Nc2ccc(-c3nnc(N(C)C)o3)cc2)o1`, with -4.93%; and `CC(CS(C)(=O)=O)NC(=O)N1CC2(CCCC2)c2ccccc21` (centres undefined), with -2.3%. Regarding `NC(=O)c1ccc(NC(=O)c2ccncc2F)cn1`, the cytotoxicity at 70.5 h was found to be 10.3%. Under `CC(C)NC(=O)N1CCC[C@H]1C(=O)NCCCc1cnn(C)c1` stands -4.04%; under `O=C(NCC1(c2cccs2)CCCCC1)N1CCOC(CO)C1` (centres undefined), -1.73%. Under `Cc1ccc(C(C)(O)CNC(=O)CCn2ccnc2C(C)C)o1` (centres undefined) stands -2.97%. For `CC(=O)N1CCCN(C(=O)NCC2(c3cccs3)CCCC2)CC1`, the cytotoxicity at 70.5 h was -4.55%. Then `CCN(CCCc1ccccc1C)S(C)(=O)=O`, with -3.45%. Under `O=C(Nc1ccccc1)C1CCCN(C(=O)Cn2cncn2)C1` (centres undefined) stands -0.859%; under `Cc1csc(N(C)C(=O)C2CC(=O)N(CCc3ccccc3)C2)n1` (centres undefined), 4.67%; under `Cc1csc(N(C)C(=O)C2CC(=O)N(c3ccccc3F)C2)n1` (centres undefined), -0.144%. Under `COCCn1cc(NC(=O)NC(C)c2ccc(Cl)s2)cn1` (centres undefined) stands -3.34%. Consider `COc1ncccc1NC(=O)N1CCOCC1C` (centres undefined), for which the cytotoxicity at 70.5 h turned out to be 4.15%. Under `CCOc1cccc2c1OCC(C(=O)NC(C)Cn1cccn1)=C2` (centres undefined) stands 16.6%; under `COc1ccc(Oc2ncccc2NC(=O)N2CCOCC2C)cc1` (centres undefined), -1.92%; under `COc1ccc(Oc2ncccc2NC(=O)N2CC[C@H](O)C2)cc1`, -1.8%. Regarding `Cc1cc(C(=O)N2CCCC2CN2CCCC2)no1` (centres undefined), the cytotoxicity at 70.5 h stood at 12.9%.

In the case of `COC(=O)C(CNC(=O)Nc1cn[nH]c1)Cc1cccc(C)c1` (centres undefined), the cytotoxicity at 70.5 h was -0.383%. Then `Cc1ccc(CN(CC(=O)NC2CCOCC2)c2ccc(F)cc2)o1`, with 1.79%. Under `CC(Nc1nc2c(cnn2C)c(=O)[nH]1)c1ccccn1` (centres undefined) stands 13%; under `COc1ccc(NC(=O)N2CCC(c3noc(C)n3)CC2)cc1C`, 1.97%. Under `Cc1cc(NC(N)=O)ccc1OCC(F)(F)F` stands -2.1%; under `CC(Cn1cncn1)NC(=O)NCC(C)(C)c1ccc(F)cc1` (centres undefined), 1.47%. `CCn1nc2c(cc1=O)CN(Cc1nc(-c3ccoc3)no1)CC2`: the cytotoxicity at 70.5 h was found to be 19.1%. Under `CN(C(=O)c1ccncc1)c1ccccc1S(C)(=O)=O` stands -2.3%; under `COc1ccc(NC(=O)N2CCC(c3nnc[nH]3)CC2)cc1C`, -3.69%; under `CCOc1ncccc1NC(=O)N1CCOCC1C` (centres undefined), -5.63%. Then `Cc1cc(CN(C)C(=O)NC(C)Cc2ccco2)no1` (centres undefined), with -3.4%; and `CN(C)CCN(Cc1cccnc1)C(=O)c1ccn(-c2ccccc2)n1`, with -3.54%.
